Entries after “also recorded” stand apart in the source; their conditions may differ.
Tests used:
U251 glioblastoma cells = assay: ROS production (DCF-DA, flow cytometry); assay type: cell-based, human; settings: 5-6 h treatment, FIG. 1D
Method: ROS were measured in live cells by monitoring the oxidation of DCF-DA (a cell-permeable probe), which undergoes deacetylation by cellular esterases and fluoresces upon oxidation by ROS. U251 MG (2×10^5 cells/six-well plates), astrocytes or H9C2 (5×10^5 cells/six-well plates) were treated as specified, incubated with […] DCF-DA for 30 min at 37° C., washed with PBS and analyzed (10^4 cells) by flow cytometry using a 488 nm excitation beam (Calibur cytometer, Becton Dickinson). The percentage of cells stained positively for DCF was determined with CellQuest software (BD Biosciences, San Jose, Calif., USA).
To gain insights into the mechanism of cell-type specific effects, ROS production in cancer cells and in non-cancer cells after treatment for 5-6 h with AN446, Dox and AN446+Dox, were assessed by staining the cells with the membrane-permeable fluorescent dye DCF-DA.

[1] = test system: 10 different cancer cell lines; assay: Viability assay (Hoechst for adherent cells, MTT for suspension cells), 72 h
Method: Hoechst assay: 22RV-1, MCF-7, MCF-7DX, 4T1, U251, and T47D cells (3×10^3 cells/well) and NCI-N87 (8×10^3 cells/well) were seeded in tissue culture in growth medium for 24 h in 96-well plates (in triplicate) and then exposed to different concentrations (titration) of the tested drug for 72 h at 37° C. The plates were then rinsed with PBS and fixed with 100 ml of 70% ethanol for 30 min. […] The fluorescence was measured (excitation at 390 nm and emission at 460 nm) with a Synergy III Fluorometer-Elisa reader (BioTek Instruments, Inc. Germany). The viability of cells grown in suspension was measured by the MTT assay. HL-60, Daudi and Jurkat cells were seeded (5×10^3 cells/well) in 96-well plates in growth medium and immediately exposed to different concentrations (titration) of the tested drugs (in triplicate). After 72 h incubation, the MTT reagent in PBS (10 ml of 5 mg/ml) was added to the cell suspension and incubated for an additional 3 h. Then, 100 ml of 0.04 M HCl in isopropanol was added and the absorbance at 570 nm measured using a Synergy III Fluorometer-spectrophotometer ELISA reader.

VEGF = VEGF immunohistochemistry in tumor and heart of xenograft mice; assay type: in vivo; settings: FIG. 4F
Method: The pro-angiogenic factors basic fibroblast growth factor (bFGF) and vascular endothelial growth factor (VEGF) are potent angiogenic stimulators. The expression of bFGF in the tumor and in the heart was evaluated by Western blot and qRT-PCR analyses and expression of VEGF by IHC.

[2] = test system: acetylated H3 histone in U251 glioblastoma cells; assay: Histone H3 acetylation (Western blot), 24 hours; assay type: cell-based, human; settings: FIG. 12
Method: The effects of the abovementioned HDAC inhibitors on histone acetylation were also compared. U251 and H9C2 cells were treated with the HDAC inhibitors for 24 hours (according to procedures described hereinabove with respect to FIGS. 9 and 10), and then subjected to Western blot analysis.

c-Myc = c-Myc and p-c-Myc (Thr 58) Western blot in tumor and heart of xenograft mice; assay type: in vivo
Method: (§1) Protein levels in the samples were determined with the BCA protein assay kit (Pierce). The samples were subjected to Western blot analyses. The expression of proteins was visualized using their specified primary antibodies followed by the secondary IgG IRDye® 680DX antibody. Each detected band was quantified using the Odyssey Infrared Imaging System (LI-COR Biosciences) and normalized to the level of actin. The fold increase of a specific protein was determined by the ratio of the band intensity obtained from treated and untreated samples.
The c-Myc protein is an important regulator of normal cell physiology and in tumor cells it plays an important role in activating oncogenic pathways [Soucek & Evan, Curr Opin Genet Dev 2010, 20:91-95].

TNF-α = TNF-α in supernatant of LPS-treated THP1 cells (ELISA); assay type: cell-based; settings: 1 μg/ml LPS, AN446 20 or 40 μM, FIG. 7B
Method: (§2) The effect of AN446 on inflammation-associated pathways was evaluated in the monocytic THP1 cell line and in the MDA-MB-231 breast carcinoma cell line. Supernatants of treated THP1 cells were collected and IL-6, IL-10 and TNF-α concentrations were quantified by ELISA (R&D systems). TLR4 expression in THP1 cells was assessed using fluorescent anti-TLR4 antibodies and FACS analysis. In addition, gene expression for MCP-1, TNF-α and TLR4 in MDA-MB-231 was evaluated by qRT-PCT, following treatment with AN446 and/or paclitaxel.

HO-1 = HO-1 protein and mRNA in tumor and heart of xenograft mice (Western blot, qRT-PCR); assay type: in vivo; settings: heart
Method: Tumors and hearts of the mice were rapidly removed, frozen on dry ice and kept at −70° C. Tissue was then homogenized and RNA and proteins extracted using the NucleoSpin® RNA/Protein kit according to the manufacturer's protocol (Macherey-Nagel, GmbH & Co KG).
Total RNA ([…]) was primed by oligo dT and reverse-transcribed by Verso cDNA kit according to the manufacturer's protocol (Thermo Scientific). Analyses of qPCR were performed with Kapa Sybr® Fast (Kapa Biosystems) on a Step One Plus thermocycler (Applied Biosystems). The comparative threshold method was used to calculate the relative gene expression. Values were normalized against glyceraldehyde 3-phosphate dehydrogenase (GAPDH). Expression of the GAPDH mRNA in each individual sample was used to normalize the dataset. The sequences of the primers were as follows: […]
as §1
The effect of the drugs on the expression of genes associated with cell survival and death was examined by following changes in transcription and protein expression in tissue samples taken from the mice with glioblastoma xenografts. Heme oxygenase (HO-1) is known to play a protective role in the heart, whereas, in many cancers it is expressed and promotes growth and survival of neoplastic cells.

[3] = test system: U251 human glioblastoma xenograft; assay: Glioblastoma xenograft model (survival, body weight, tumor volume, tumor weight, Ki-67); settings: for tumor volume of vehicle-treated group relative to treated group: from day 11, FIG. 3C
Method: Xenograft of glioblastoma: 8- to 10-week-old male Hsd athymic FOXN (Harlan, Jerusalem, Israel) were inoculated sc in the flanks with 5×10^6 U251 cells. Tumor length (L) and width (W) were measured with a caliper twice weekly. Tumor volumes were calculated according to the formula: (L×W2)/2. When the tumor was established (volume of 50-100 mm^3) the mice were randomly divided into six groups treated with: vehicle control (saline); ip Dox 4 mg/kg once weekly; po AN446 25 mg/kg thrice a week; po AN7 50 mg/kg thrice a week; combination of AN446+Dox (4 mg/kg ip Dox once a week and 25 mg/kg po AN446 thrice a week); AN7+Dox (4 mg/kg ip Dox once a week and 50 mg/kg po AN7 thrice weekly). Untreated, non-bearing tumor naive mice were maintained under the same conditions. The experiment was terminated after 25 treatment days, the mice were sacrificed under CO2 and their tumors and hearts were removed, weighed and divided into parts dedicated for immunohistochemistry (IHC) and the rest were frozen (−80° C.) for Western blot and Quantitative PCR (qRT-PCR) analyses.
Inactivation of avidin-biotin nonspecific binding was prevented by a blocking kit, according to the manufacturer's protocol (Vector Laboratories). […] The secondary antibody was biotin conjugated goat anti-rabbit or anti-mouse IgG. Slides were then stained with the ABC peroxidase system, developed with diaminobenzidine (DAB) (Vector Laboratories) and counterstained with hematoxylin (Bio-Optica, Milano, Italy). The slides were examined using an Olympus BX 52 light microscope, and images were taken with an Olympus DP50 digital camera system.
Mice were implanted subcutaneously with U251 cells and when the tumors reached 50-100 mm^3 treatments were initiated. Survival was evaluated by the Kaplan-Meier end-product analysis, where treatment failure (the experimental end points) was a loss of ˜20% body weight, or a tumor volume of >1 cm^3.

IL-6 = IL-6 in supernatant of LPS-treated THP1 cells (ELISA); assay type: cell-based; settings: 1 μg/ml LPS, AN446 20 or 40 μM, FIG. 7B
Method: as §2

[4] = test system: murine mammary carcinoma 4T1; assay: FACS viability, annexin V-FITC / PI; assay type: cell-based; settings: AN446 24 h; 200 nM Dox 5 h; combination compared to Dox alone; FIG. 1C
Method: (§3) Cell viability by flow cytometry analysis (FACS) analysis was determined using the Mebcyto apoptosis kit (MBL-Japan). The cell lines 4T1, U251 (2×10^5 cells/well), astrocytes and the cardiomyoblastic cell line H9C2 (5×10^5 cells/well) were seeded in six-well plates. Following treatment they were trypsinized, washed with PBS, resuspended in […] of binding buffer and double-stained with annexin V-FITC and propidium iodide (PI) according to the manufacturer's instructions. The stained cells were subjected to FACS analyses (Calibur cytometer, Becton Dickinson) where 30,000 cells were allowed to flow for each determination point and the percentage of cells in each state (viability or death) was defined by their distribution in fluorescence dot-plots using WinMdi 2.8 software (Scripps Research Institute, La-Jolla, USA).
(§4) The apoptotic effect of AN446, Dox and their combination was evaluated in U251 and 4T1 cancer cells, and in the non-cancerous rat cardiomyoblast cell line (H9C2) and in primary rat astrocytes, using procedures previously described for AN7 [Tarasenko et al., Invest New Drugs 2012, 30:130-143].

[5] = test system: U251 MG human glioma cells; assay: FACS viability, annexin V-FITC / PI; assay type: cell-based
Method: as §3, §4

## CCCC(CCC)C(=O)Nc1nc2c(ncn2COCCOC(=O)C(CCC)CCC)c(=O)[nH]1 [AN446, N-valproyl-9-(2-valproyloxy)ethoxymethyl-guanine]
U251 glioblastoma cells
  percentage of ROS positive U251 cells: increased the percentage of ROS positive U251 glioblastoma cells significantly more than Dox
[1]; 72 h, read-out: IC50 (cell viability)
  IC50: 20 to 46 µM
[1]; from IC50 values, FIG. 1A
  potency in reducing the viability of cancer cells relative to AN7: 2-5 fold
VEGF
  VEGF expression in the heart: elevated
[2]
  histone acetylation in U251 cancer cells: increased histone acetylation considerably
c-Myc; heart, FIG. 5B
  c-Myc protein expression in the hearts: significantly increased its expression to a level higher than in naive or vehicle-treated mice
c-Myc; tumor, FIG. 5A
  c-Myc protein expression in tumors: decreased dramatically
TNF-α
  LPS-induced expression of TNF-α: suppressed
HO-1; co-treatment with Dox
  HO-1 expression in the heart: increased the expression of this enzyme to a significantly higher level
  HO-1 mRNA in the heart, elevation of basal expression level: 3.89±0.35 fold
HO-1; single agent, FIGS. 4D, 4E
  HO-1 expression in the heart (decrease): did not significantly change
[3]; added to Dox 4 mg/kg ip once a week, day 25, FIG. 3A
  survival of mice when added to Dox treatment: 80%
[3]; added to Dox 4 mg/kg, FIG. 3B
  body weight loss when added to Dox treatment: significant attenuation of body weight loss
[3]; in combination with Dox, FIG. 3F
  Ki-67 positive (proliferating) cells in tumors: reduced the proliferating cells to a level significantly lower than any of the single drug treatments
[3]; in combination with Dox
  tumor volume of vehicle-treated group relative to treated group: 3 fold
[3]; single agent vs vehicle, FIGS. 3E, 3F
  Ki-67 positive cells in tumors: considerably more Ki-67 positive cells were detected in tumors of the vehicle-treated mice
[3]; single agent
  tumor volume of vehicle-treated group relative to treated group: 2 fold
[3]; single agent: AN446 25 mg/kg or AN7 50 mg/kg po thrice weekly, Dox 4 mg/kg ip once a week, FIG. 3A
  survival of mice until end of experiment (day 25): 100%
IL-6
  LPS-induced expression of IL-6: suppressed
[4]
  viability / mortality of 4T1 cells: significantly enhanced the mortality
[5]; 24, 48 or 72 hours, each inhibitor at its U251 IC50, FIG. 9, listed as valprostat
  cell death in U251 glioblastoma cells: effective at inducing cell death in glioblastoma cells after 24, 48 or 72 hours; also recorded: particularly more effective than the other tested HDAC inhibitors at inducing cell death after 24 hours
[5]; AN446 24 h, 200 nM Dox 5 h, combination compared to Dox alone, FIG. 1C
  viability / mortality of U251 cells: significantly enhanced the mortality
[5]; U251 vs H9C2, at each time point (24, 48, 72 hours), FIG. 11
  therapeutic index (ratio of cancer cell mortality to cardiomyoblast mortality): more than 2
